In patent US6355784B1, “Methods and compositions for the manufacture of halogenated anthracyclines with increased antitumor activity, other anthracyclines, halogenated sugars, and glycosyl donors” (priority 1998, dated 2002):
Values after ≈ are worked out from the molar mass of the structure shown.

Experiments:
[1] = system: KB cells; experiment: MTT cytotoxicity assay, sensitive KB cells; conditions: sensitive human carcinoma KB cells, 72 hours
[2] = system: KBVI (MDR) cells; experiment: MTT cytotoxicity assay, multi-drug-resistant KBV1 cells; conditions: for ID50 KBVI (MDR): multi-drug-resistant KBV1 cells overexpressing MDR1 (P-gp), MTT, 72 hours; for RI (resistance index) KBVI vs KB: ratio of ID50 in KB and KBVI cells
[3] = system: MCF-7/VP-16 (MRP) cells; conditions: for ID50 MCF-7/VP-16 (MRP): MRP-overexpressing MCF-7/VP-16 cells, MTT, 72 hours; for RI (resistance index) MCF-7/VP-16 vs MCF-7: ratio of ID50 in MCF-7 and MCF-7/VP-16 cells
[4] = system: MCF-7 cells; experiment: MTT cytotoxicity assay, wild-type MCF-7 cells; conditions: for ID50 MCF-7: sensitive human breast carcinoma MCF-7 cells, MTT, 72 hours; for cytotoxicity in sensitive MCF-7 cells, in words: compared with DOX
[5] = system: MCF-7/DOX (MDR) cells; experiment: MTT cytotoxicity assay, MDR MCF-7/DOX cells; conditions: for ID50 MCF-7/DOX (MDR): MDR-overexpressing MCF-7/DOX cells, MTT, 72 hours; for RI (resistance index) MCF-7/DOX vs MCF-7: ratio of ID50 in MCF-7 and MCF-7/DOX cells
[6] = system: prion disease; conditions: cited from earlier work
[7] = system: amyloidosis; conditions: as a result of amyloid resorption; cited from earlier work
[8] = system: amyloid enhancing factor; conditions: preincubation of the amyloid enhancing factor with IDOX; cited from earlier work
[9] = system: amyloid fibrils; conditions: cited from earlier work

| Compound | ID50 KB [1] [mg/L] | ID50 KBVI (MDR) [2] [mg/L] | ID50 MCF-7/VP-16 (MRP) [3] [mg/L] | RI (resistance index) MCF-7/VP-16 vs MCF-7 [3] | ID50 MCF-7 [4] [mg/L] | ID50 MCF-7/DOX (MDR) [5] [mg/L] | further results |
| --- | --- | --- | --- | --- | --- | --- | --- |
| 6′-fluoro-doxorubicin [WP 743] | 0.64 | 41 | 2.3 | 11.5 | 0.2 | >10 | RI (resistance index) KBVI vs KB [2]: 64; RI (resistance index) MCF-7/DOX vs MCF-7 [5]: 50 |
| COc1cccc2c1C(=O)c1c(O)c3c(c(O)c1C2=O)C[C@@](O)(C(=O)CO)C[C@@H]3O[C@H]1C[C@H](N)[C@H](O)[C@H](C)O1 [DOX, doxorubicin, reference compound] | 4.1 ± 0.3 (≈ 7.54 µM) | >100 | 6.2 (≈ 11.4 µM) | 16.3 | 0.38 (≈ 0.699 µM) | >100 | cytotoxicity against MDR KB-V1 cells, in words [2]: inactive; RI fold higher than that of WP 715 and WP 722 ([5]; MCF-7/DOX cells): 180 fold; RI (resistance index) MCF-7/DOX vs MCF-7 [5]: >263 |
| COc1cccc2c1C(=O)c1c(O)c3c(c(O)c1C2=O)CC(O)(C(=O)CO)CC3OC1CC(N)C(I)C(C)O1 (centres unmarked) [IDOX, 4′-iodo-4′-deoxydoxorubicin] | – | – | – | – | – | – | onset of disease ([6]; Syrian-hamster prion model): delayed onset of the disease; survival time ([6]; Syrian-hamster prion model): prolonged; accumulation of amyloid fibrils in brain ([6]; neuropathological examination, versus untreated controls): delay in the accumulation of amyloid fibrils; clinical outcome in patients with amyloidosis [7]: substantial clinical improvement; formation of amyloid deposits [8]: significantly reduces formation of amyloid deposits; binding to amyloid fibrils [9]: binds strongly |
| COc1cccc2c1C(=O)c1c(O)c3c(c(O)c1C2=O)CC(O)(C(=O)CO)CC3OC1CC(O)C(F)C(C)O1 (centres unmarked) [WP 563, 3′-Deamino-4′-fluoro-3′-hydroxydoxorubicin] | – | 2.74 ± 2.9 (≈ 5.01 µM) | – | – | – | – | – |
| COc1cccc2c1C(=O)c1c(O)c3c(c(O)c1C2=O)CC(O)(C(=O)CO)CC3OC1CC(O)C(F)(F)C(C)O1 (centres unmarked) [WP 600, 3′-deamino-4′-deoxy-4′,4′-difluoro-3′-hydroxy-doxorubicin] | – | 16.9 ± 2.3 (≈ 29.9 µM) | – | – | – | – | – |
| COc1cccc2c1C(=O)c1c(O)c3c(c(O)c1C2=O)CC(O)(C(C)=O)CC3OC1CC(N)C(F)C(C)O1.Cl (centres unmarked) [WP 715, 4′-deoxy-4′-fluoro-daunorubicin hydrochloride] | 3.15 ± 0.9 | 4.1 ± 0.6 | – | – | 1.5 ± 1.4 | 2.2 | cytotoxicity in sensitive MCF-7 cells, in words [4]: less potent than DOX; cytotoxicity against resistant MCF-7/DOX cells, in words [5]: highly cytotoxic against resistant cells |
| COc1cccc2c1C(=O)c1c(O)c3c(c(O)c1C2=O)CC(O)(C(=O)CO)CC3OC1CC(N)C(F)C(C)O1 (centres unmarked) [WP 722, 4′-deoxy-4′-fluoro-doxorubicin] | 2.1 ± 2.5 (≈ 3.85 µM) | 3.3 ± 0.4 (≈ 6.05 µM) | 4.2 ± 5.0 (≈ 7.7 µM) | 3.23 | 1.3 ± 1.6 (≈ 2.38 µM) | 1.9 (≈ 3.48 µM) | RI (resistance index) KBVI vs KB [2]: 1.57; cytotoxicity in MCF-7/VP-16 cells, in words ([3]; compared with DOX): significant increase in cytotoxicity; cytotoxicity in sensitive MCF-7 cells, in words [4]: less potent than DOX; cytotoxicity against resistant MCF-7/DOX cells, in words [5]: highly cytotoxic against resistant cells |
